# Measurements as given in publication PMC10934121 (Molecules, 2024).
# “And” between values parts separate entries of the source, which are not always exact repeats. Identical values can stand only once.
# What was measured:
# [1] = Time-resolved concentrations of indole and its metabolites in organs after oral administration of indole (HPLC/MS); type: in vivo, C57BL/6J mice; settings: for Tmax: C57BL/6JRj, mouse, in vivo, 350 mg/kg
# Experimental: (§1) All animal testing was performed with the European Communities Council Directive 2010/63/E.U. guidelines and approved by the Lithuania State Food and Veterinary Service, Animal Ethics Experimentation Committee (project G2-244). C57BL/6JRj mouse line animals (Janvier Labs, Le Genest-Saint-Isle, France) were used for all procedures. Before the experiment, animals were housed in groups under a 12 h light–dark cycle with a temperature of 21 ± 1 °C and humidity of 55 ± 10%. The experiment was conducted in 3 major phases (Figure 8).
# Animals were starved for 1 h before the administration of the compounds. […] The animals then were housed in single cages and culled at different time points (30 min, 1 h, 2 h, 4 h, and 6 h). The organs were immediately extracted on ice and stored at –80 °C until further analysis. The inside of the intestines was cleaned before freezing. 3-Hydroxyindolin-2-one was administered by gavage at three doses (100 mg/kg, 200 mg/kg, and 400 mg/kg). The animals were culled 30 min after the administration. The organs were immediately removed on ice and stored at –80 °C until further analysis.
# Organ samples were thawed, weighed, and homogenized (3 cycles ×30 s, using Benchmark the BeadBug 6 homogenizer, Sayreville, NJ, USA) in 1 mL of deionized water containing different concentrations of 1-methylindolin-2-one as an internal standard. Plasma samples were not homogenized and were subjected to liquid–liquid extraction directly. Organ homogenates were centrifuged at 16,000× g for 10 min at 4 °C. The supernatants were extracted three times with equal amounts of ethyl acetate. All three extracts were pooled and evaporated under reduced pressure (AES2000 SpeedVAC, Savant, Thermo Fisher Scientific, Waltham, MA, USA). The dried material was dissolved in 100 μL 50% methanol by vigorous shaking and centrifugation at 16,000× g for 5 min. The supernatant was subjected to HPLC/MS analysis.
# (§2) Organ extracts were analyzed by HPLC/MS as described in [20]. […] Limits of detection (LOD) for HPLC determination of the metabolite concentrations were determined by using different concentrations of standard solutions and following the same extraction protocol as described above.
# [2] = Plasma and brain concentration after oral administration of 3-hydroxyindolin-2-one; type: in vivo, C57BL/6J mice; settings: 30 min after oral 3-hydroxyindolin-2-one 100, 200, 400 mg/kg
# Experimental: as §1
# Animals were starved for 1 h before the administration of the compounds. […] The animals then were housed in single cages and culled at different time points (30 min, 1 h, 2 h, 4 h, and 6 h). The organs were immediately extracted on ice and stored at –80 °C until further analysis. The inside of the intestines was cleaned before freezing. 3-Hydroxyindolin-2-one was administered by gavage at three doses (100 mg/kg, 200 mg/kg, and 400 mg/kg). The animals were culled 30 min after the administration. The organs were immediately removed on ice and stored at –80 °C until further analysis. […]
# as §2
# monoamine oxidase = settings: cited from earlier work
# acetylcholinesterase = settings: cited from earlier work
# [3] = Detection of 13C isotope-carrying metabolites after oral stable isotope-carrying indole (HPLC/MS); type: in vivo, C57BL/6J mice; settings: 2 h after gavage of 13C (C2) indole; N = 1
# Experimental: Since indole is produced endogenously by the gut microbiota from dietary compounds, it is possible that the metabolites identified in the organ extracts were produced from endogenous indole or other precursors rather than the exogenously supplied indole. […] We detected heavier isotopes of indolin-2-one and 3-hydroxyindolin-2-one in the brain, liver, cecum, small intestine, and colon 2 h after administration (Figure 4, Figures S1–S15). This confirmed the previous experiment and provided direct evidence that indole in the gut is a substrate for several metabolites that spread throughout the body and even to the brain.
# as §1, with “The experiment was conducted in 3 major phases (Figure 8).” left out
# as §2
# CBR1 = test: Gene expression by real-time PCR after indole administration; type: in vivo, C57BL/6J mice
# Experimental: as §1
# (§3) The total RNA was isolated from the mice’s brain medulla and liver tissues using the TRIzol™ Plus RNA Purification Kit according to the manufacturer’s protocol (Thermo Fisher Scientific, Vilnius, Lithuania). To remove gDNA, samples were treated with dsDNase reagent (Thermo Fisher Scientific, Lithuania). cDNA was synthesized using a High-Capacity cDNA Reverse Transcription kit (Thermo Fisher Scientific, Lithuania) according to the manufacturer’s instructions. The expression of CYP1A2, CYP2E1, CYP2A5, CYP2C29, CBR1, CBR3, and GAPDH was analyzed by the QuantStudio™ 3 Real-Time PCR System (Thermo Fisher Scientific, Lithuania), using SYBR™ Green PCR Master Mix (Thermo Fisher Scientific, Lithuania). The following primer sequences were used: Cyp2c29_FW (5′-[…]-3′), Cyp2c29_RV (5′-[…]-3′), Cyp2a5_FW (5′-[…]-3′), Cyp2a5_RV (5′-[…]-3′), Cbr3_FW (5′-[…]-3′), Cbr3_RV (5′-[…]-3′), Cyp1a2_FW (5′-[…]-3′), Cyp1a2_RV (5′-[…]-3′), Cyp2e1_FW (5′-[…]-3′), Cyp2e1_RV (5′-[…]-3′), GAPDH_FW (5′-[…]-3′), GAPDH_RV (5′-[…]-3′), Cbr1_FW (5′-[…]-3′), Cbr1_RV (5′-[…]-3′). All samples were run in duplicates. Ct values were normalized to GAPDH using the delta–delta Ct method.
# CYP1A2 = test: as above; type: in vivo, C57BL/6J mice; settings: liver, 1 h after indole administration, increasing with time
# Experimental: as §1, §3
# CBR3 = test: as above; type: in vivo, C57BL/6J mice; settings: for CBR3 expression increase: liver
# Experimental: as §1, §3
# CYP2E1 = test: as above; type: in vivo, C57BL/6J mice; settings: liver
# Experimental: as §1, §3
# [4] = cited from earlier work
# [5] = design: method as in PMID 9572285; settings: cited from earlier work
# [6] = 30 min after oral indole 350 mg/kg, individual mice (samples 1-2)
# [7] = 30 min after oral indole 350 mg/kg, individual mice (samples 1-3)
# [8] = 1 h after oral indole 350 mg/kg, individual mice (samples 1-3)
# [9] = 2 h after oral indole 350 mg/kg, individual mice (samples 1-3)
# [10] = 4 h after oral indole 350 mg/kg, individual mice (samples 1-3)
# [11] = 6 h after oral indole 350 mg/kg, individual mice (samples 1-3)
compound,measurement,setting,value
"O=C1Nc2ccccc2C1O (stereo not shown) [3-hydroxyindolin-2-one, 3-hydroxy-1,3-dihydro-2H-indol-2-one]",Concentration in cecum extracts,[1]; [6],22.14 nmol/g and 29.66 nmol/g
same,Concentration in brain extracts,[1]; [7],54.77 nmol/g and 76.19 nmol/g and 69.87 nmol/g
same,Concentration in large intestine (LI) extracts,[1]; [7],45.32 nmol/g and 75.39 nmol/g and 41.71 nmol/g
same,Concentration in liver extracts,[1]; [7],7.43 nmol/g and 14.12 nmol/g and 15.72 nmol/g
same,Concentration in plasma,[1]; [7],BDL
same,Concentration in small intestine (SI) extracts,[1]; [7],76.51 nmol/g and 53.50 nmol/g and 66.77 nmol/g
same,Concentration in brain extracts,[1]; [8],65.73 nmol/g and 37.10 nmol/g and 68.54 nmol/g
same,Concentration in cecum extracts,[1]; [8],18.19 nmol/g and 12.89 nmol/g and 17.05 nmol/g
same,Concentration in large intestine (LI) extracts,[1]; [8],30.45 nmol/g and 6.37 nmol/g and 58.67 nmol/g
same,Concentration in liver extracts,[1]; [8],64.90 nmol/g and 46.68 nmol/g and 86.61 nmol/g
same,Concentration in plasma,[1]; [8],BDL
same,Concentration in small intestine (SI) extracts,[1]; [8],52.78 nmol/g and 4.63 nmol/g and BDL
same,Concentration in brain extracts,[1]; [9],BDL
same,Concentration in cecum extracts,[1]; [9],7.06 nmol/g and 19.80 nmol/g and 10.80 nmol/g
same,Concentration in large intestine (LI) extracts,[1]; [9],BDL
same,Concentration in liver extracts,[1]; [9],63.22 nmol/g and BDL
same,Concentration in plasma,[1]; [9],BDL
same,Concentration in small intestine (SI) extracts,[1]; [9],BDL (2×) and 48.78 nmol/g
same,Concentration in brain extracts,[1]; [10],BDL
same,Concentration in cecum extracts,[1]; [10],21.81 nmol/g and 17.61 nmol/g and BDL
same,Concentration in large intestine (LI) extracts,[1]; [10],BDL
same,Concentration in liver extracts,[1]; [10],18.61 nmol/g and BDL and 6.72 nmol/g
same,Concentration in plasma,[1]; [10],BDL (2×) and 15.47 nmol/g
same,Concentration in small intestine (SI) extracts,[1]; [10],BDL (2×) and 24.91 nmol/g
same,Concentration in brain extracts,[1]; [11],BDL
same,Concentration in cecum extracts,[1]; [11],35.22 nmol/g and BDL and 13.51 nmol/g
same,Concentration in large intestine (LI) extracts,[1]; [11],18.68 nmol/g and BDL and 33.36 nmol/g
same,Concentration in liver extracts,[1]; [11],BDL
same,Concentration in plasma,[1]; [11],BDL
same,Concentration in small intestine (SI) extracts,[1]; [11],BDL
same,Presence in the brain,[1]; after oral indole 350 mg/kg,found in the brain
same,"Time of highest concentrations in liver, small intestine and brain",[1]; after oral indole 350 mg/kg,1 h
same,Concentration in brain,[2],significant dose-dependent increase
same,Concentration in plasma,[2],significant dose-dependent increase
same,Inhibitory effect on monoamine oxidase compared to isatin,monoamine oxidase,lower inhibitory effect
same,Inhibitory effect on acetylcholinesterase compared to isatin,acetylcholinesterase,lower inhibitory effect
same,"Heavier (13C) isotope of metabolite in brain, liver, cecum, small intestine and colon",[3],detected
"c1ccc2[nH]ccc2c1 [Indole, indole]",Concentration in cecum extracts,[1]; [6],37.54 nmol/g and 22.73 nmol/g
same,Concentration in brain extracts,[1]; [7],59.54 nmol/g and 147.88 nmol/g and 22.10 nmol/g
same,Concentration in large intestine (LI) extracts,[1]; [7],119.49 nmol/g and 137.49 nmol/g and 66.42 nmol/g
same,Concentration in liver extracts,[1]; [7],156.1 nmol/g and 54.56 nmol/g and 3.21 nmol/g
same,Concentration in plasma,[1]; [7],170.99 nmol/g and 96.67 nmol/g and 15.31 nmol/g
same,Concentration in brain extracts,[1]; [8],4.75 nmol/g and BDL and 5.84 nmol/g
same,Concentration in cecum extracts,[1]; [8],29.05 nmol/g and 32.96 nmol/g and 48.99 nmol/g
same,Concentration in large intestine (LI) extracts,[1]; [8],4.64 nmol/g and 2.89 nmol/g and 70.74 nmol/g
same,Concentration in liver extracts,[1]; [8],BDL
same,Concentration in plasma,[1]; [8],6.73 nmol/g and 0.00 nmol/g and 10.19 nmol/g
same,Concentration in brain extracts,[1]; [9],BDL
same,Concentration in cecum extracts,[1]; [9],7.99 nmol/g and 0.00 nmol/g and 24.86 nmol/g
same,Concentration in large intestine (LI) extracts,[1]; [9],2.89 nmol/g and 7.18 nmol/g and 278.22 nmol/g
same,Concentration in liver extracts,[1]; [9],67.36 nmol/g and 3.05 nmol/g and 414.1 nmol/g
same,Concentration in plasma,[1]; [9],0.00 nmol/g (2×) and 5.68 nmol/g
same,Concentration in brain extracts,[1]; [10],BDL and 1.41 nmol/g
same,Concentration in cecum extracts,[1]; [10],0.00 nmol/g and 12.47 nmol/g
same,Concentration in large intestine (LI) extracts,[1]; [10],30.39 nmol/g and 11.51 nmol/g and 34.93 nmol/g
same,Concentration in liver extracts,[1]; [10],8.76 nmol/g and 0.00 nmol/g and 97.7 nmol/g
same,Concentration in plasma,[1]; [10],0.00 nmol/g (2×) and 3.97 nmol/g
same,Concentration in brain extracts,[1]; [11],BDL
same,Concentration in cecum extracts,[1]; [11],0.00 nmol/g
same,Concentration in large intestine (LI) extracts,[1]; [11],171.66 nmol/g and 231.01 nmol/g and 24.29 nmol/g
same,Concentration in liver extracts,[1]; [11],80.7 nmol/g and 58.6 nmol/g and BDL
same,Concentration in plasma,[1]; [11],0.00 nmol/g
same,Tmax,"[1]; po, read-out: Time of peak plasma concentration (converted)",30 min
same,Presence in the brain,[1]; after oral indole 350 mg/kg,found in the brain
same,Highest indole concentration (liver),"[1]; liver, 2 h after ingestion of indole 350 mg/kg",414.15 nmol/g
same,Time within which indole is metabolized,[1]; oral indole 350 mg/kg,up to 6 h
same,CBR1 expression,"CBR1; liver and brain, any time point after indole administration",unaffected
same,CBR1 expression level,"CBR1; liver, after indole administration",not altered
same,CYP1A2 expression,CYP1A2,significant increase
same,CBR3 expression,"CBR3; brain, 2 h after indole administration",slight increase
same,CBR3 expression increase,CBR3; 4 h after indole administration,12 times
same,CBR3 expression increase,CBR3; 6 h after indole administration,8 times
same,CYP2E1 expression,CYP2E1,mainly unchanged
"O=C1Cc2ccccc2N1 [Indolin-2-one, 1,3-dihydro-2H-indol-2-one]",Tmax,[1]; po,30 min
same,Blood–brain barrier crossing,[4],cross the blood–brain barrier
same,Effect of low doses in the blood,[5]; 10 mg/kg,reduced blood pressure and mild sedation
same,Effect of high doses,[5]; 100 mg/kg,coma and death
same,"Heavier (13C) isotope of metabolite in brain, liver, cecum, small intestine and colon",[3],detected
"O=C1Nc2ccccc2C1=O [Isatin, 3-hydroxy-2H-indol-2-one]",Tmax,[1],360 min
same,Tmax,[1]; po,30 min
same,Isatin in the brain,[4]; after systemic administration,up to 5 nmol/g
same,Blood–brain barrier crossing,[4],cross the blood–brain barrier
